Test results: patent US7713935B2, “Compounds that modulate TRH actions” (The Provost, Fellows and Scholars of The College of The …, priority 2004, dated 2010)
Like-named read-outs stand apart in the source and are kept apart here. Square brackets hold non-standard residues; d marks the D form. Peptide text beside a SMILES is read from it. * marks the point of attachment. AMC = Cc1cc(=O)oc2cc(N*)ccc12; pGlu = O=C1CC[C@@H](C(=O)O)N1

Columns and labels:
[1] = molecular target: native rat cortical TRH receptors; assay: TRH receptor binding: displacement of [3H][3-Me-His2]TRH from rat cortical membranes; details: for Affinity for [3H]-3MeHis-TRH-labelled receptors in rat brain cortex: result in words; for Affinity for [3H]-3MeHis-TRH-labelled receptors compared with 3MeHis-TRH: rat brain cortex
Experimental: It cannot be ruled out, however, that [^3H][3-Me-His^2]TRH is binding to a TRH receptor subtype in rat brain cortex that has yet to be identified.
Radioligand binding assays were carried out to examine the ability of these TRH-DE inhibitors to bind to TRH receptors. This was achieved by measuring the ability of the inhibitors to displace [^3H][3-Me-His^2]TRH binding to rat cortical membranes. Membranes were prepared from the cortex of male Wistar rats. The binding of [^3H]-3MeHis-TRH to TRH receptors in cortical membranes was measured as described previously (Kelly et al., 2002) using 10 mM TRH to define non-specific binding. The affinity of TRH-DE inhibitors for TRH receptors was determined in competition experiments and data were analyzed using GraphPad Prism. […] The rank order of potency of D isomer inhibitors was JAK4-D>JAK2-D>JAK1-D.

[2] = molecular target: T1, TRH-DE purified from porcine brain (Sus scrofa, UniProt A0A287AP33); assay: Inhibition of purified TRH-DE (kinetic/fluorometric assays); type: biochemical; details: read-out: Ki values for TRH-DE inhibitors
T1 construct: TRH-DE purified from porcine brain; from tissue; host or cells: porcine brain
T1 sequence (A0A287AP33 1-1066): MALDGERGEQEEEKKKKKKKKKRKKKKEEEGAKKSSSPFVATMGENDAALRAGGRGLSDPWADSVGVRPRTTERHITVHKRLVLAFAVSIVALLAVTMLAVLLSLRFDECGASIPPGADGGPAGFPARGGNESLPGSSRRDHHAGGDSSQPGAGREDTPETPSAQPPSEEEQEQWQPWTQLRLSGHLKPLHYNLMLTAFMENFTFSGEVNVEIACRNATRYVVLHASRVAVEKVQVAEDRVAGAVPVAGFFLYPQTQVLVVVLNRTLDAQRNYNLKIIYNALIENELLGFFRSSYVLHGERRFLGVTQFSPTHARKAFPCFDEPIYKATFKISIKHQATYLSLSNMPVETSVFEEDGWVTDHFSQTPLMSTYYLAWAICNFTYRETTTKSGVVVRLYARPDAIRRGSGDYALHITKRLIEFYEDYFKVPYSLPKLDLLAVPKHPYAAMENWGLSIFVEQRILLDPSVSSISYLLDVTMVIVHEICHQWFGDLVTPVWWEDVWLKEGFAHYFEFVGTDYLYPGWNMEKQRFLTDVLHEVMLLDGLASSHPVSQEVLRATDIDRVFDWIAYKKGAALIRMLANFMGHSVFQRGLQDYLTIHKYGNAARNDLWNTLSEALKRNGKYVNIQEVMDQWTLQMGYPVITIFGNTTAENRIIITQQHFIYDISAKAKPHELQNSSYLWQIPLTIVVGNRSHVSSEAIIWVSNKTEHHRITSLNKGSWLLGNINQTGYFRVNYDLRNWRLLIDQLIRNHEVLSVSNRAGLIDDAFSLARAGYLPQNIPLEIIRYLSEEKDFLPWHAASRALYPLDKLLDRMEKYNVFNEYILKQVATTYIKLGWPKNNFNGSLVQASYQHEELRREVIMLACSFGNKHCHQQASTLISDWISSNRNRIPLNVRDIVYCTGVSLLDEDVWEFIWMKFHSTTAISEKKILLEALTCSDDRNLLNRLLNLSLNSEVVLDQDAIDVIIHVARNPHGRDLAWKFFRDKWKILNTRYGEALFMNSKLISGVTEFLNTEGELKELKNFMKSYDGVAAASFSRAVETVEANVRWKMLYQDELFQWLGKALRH
Text: The binding capacity offered by in the vicinity of the S2′ binding site of TRH-DE was studied. […] The L-amino acids in these peptides were replaced with D-amino acids. The vast majority of naturally occurring polypeptides are composed of L-amino acids and mammalian proteolytic enzymes are designed to work with this stereochemistry. Thus, replacement of L-amino acids by D-amino acids is used in the art in an endeavor to confer stability to proteolytic degradation as described in U.S. Pat. No. 6,703,366. It is recognized by the art that this type of replacement, however, may lead to loss of peptide specificity and or activity as noted by U.S. Pat. No. 4,587,233, Sato et al. 1987 and Fischer 2003, and thus the effect of the replacement is unpredictable. […] Replacement of L-amino acids by D-amino acids may also be used to scan the relative importance of the stereochemistry of particular functional groups in a peptide structure and also that of local structures within the peptide (Hruby, 2002).
The ability of compounds to be hydrolysed by and to inhibit TRH-DE purified from porcine brain was determined using kinetic assays as previously described (Kelly et al. 1999, 2000a, 2000b, U.S. Pat. application 20030166944). […] [JAK 1, JAK 2, JAK 3, JAK 4 and JAK 5 are described in U.S. Pat. App. No. 20030166944.]
HPLC analysis was used, as previously described (Kelly et al. 2000a, U.S. Pat. App. 20030166944), to assess the ability of each compound listed above to act as a TRH-DE substrate. […] Compounds were then screened for their ability to inhibit TRH-DE purified from porcine brain using fluorometric assays, as previously described (Kelly et al. 2000a, U.S. Pat. App. 20030166944).

[3] = system: Male Wistar rats; assay: Antagonism of barbiturate-induced sleep time (analeptic effect); type: in vivo, rat; details: 1 mg/kg i.v.; for Sleep time: 10 min after sodium pentobarbitone 30 mg/kg i.p., mean ± SEM; for Effect on barbiturate-induced sleep time: result in words
Experimental: The antagonism of barbiturate-induced anesthesia is a well-recognized pharmacological effect of TRH and is used in the art to indicate successful central delivery and activity of TRH analogues. […] Male Wistar rats (150-250 g) were anaesthetized with sodium pentobarbitone (30 mg/kg i.p.). […] Animals were placed on their backs and sleep times recorded. From Table III it can be seen that both […] [table]

[4] = system: Male Wistar rats; assay: Rat behaviour total activity score; type: in vivo
Experimental: These include, increased locomotor activity (21-22), induction of blinking and forepaw licking and body shaking behavior, often referred to as 'wet dog shakes' (WDS) Kelly et al., 2000b). […] Male Wistar rats (150-250 g) were placed in individual perspex boxes and allowed to acclimatize for 20 min. […] Individual behaviors were recorded for 30 sec at 5 min intervals by an observer who was blind to treatment. Behaviors during each observation period were summed to yield a total activity score.

[5] = system: Male Wistar rats; assay: Wet dog shaking (WDS) behavior; type: in vivo, rat
[6] = system: native rat cortical TRH receptors; details: cited from earlier work; for Affinity compared to TRH for [3H]-3MeHis-TRH-labelled receptors in rat cortical membranes: previous studies (Kelly et al., 2002)
[7] = system: Male Wistar rats; details: Kelly et al., 2000b; cited from earlier work
[8] = L isomer, JAK compounds dissolved in DMSO, read-out: Ki, inhibition of [3H]-3MeHis-TRH binding, X is L isomer aa
[9] = D isomer, JAK compounds dissolved in DMSO, read-out: Ki, inhibition of [3H]-3MeHis-TRH binding, X is D isomer aa

## Cn1cncc1C[C@H](NC(=O)[C@@H]1CCC(=O)N1)C(=O)N1CCC[C@H]1C(N)=O [3-MeHis-TRH, reference compound]
[1]; in DMSO, read-out: Ki, inhibition of [3H]-3MeHis-TRH binding
  Ki: 74 nM
[1]; in saline, read-out: Ki, inhibition of [3H]-3MeHis-TRH binding
  Ki: 1.9 nM

## Cc1cc(=O)oc2cc(NC(=O)[C@H](Cc3c[nH]c4ccccc34)NC(=O)[C@H](Cc3c[nH]c4ccccc34)NC(=O)[C@H](Cc3ccc(O)cc3)NC(=O)[C@@H]3CCCN3C(=O)[C@H](CC(N)=O)NC(=O)[C@@H]3CCC(=O)N3)ccc12 [JAK 1, Glp-Asn-Pro-LTyr-LTrp-LTrp-AMC] ([pGlu]NPYWW-{AMC})
[2]
  Ki: 1 nM
[1]; [8]
  Ki: > 100000 nM
[1]
  Affinity for [3H]-3MeHis-TRH-labelled receptors in rat brain cortex: low affinity

## Cc1cc(=O)oc2cc(NC(=O)[C@@H](Cc3c[nH]c4ccccc34)NC(=O)[C@@H](Cc3c[nH]c4ccccc34)NC(=O)[C@@H](Cc3ccc(O)cc3)NC(=O)[C@@H]3CCCN3C(=O)[C@H](CC(N)=O)NC(=O)[C@@H]3CCC(=O)N3)ccc12 [JAK 1D, Glp-Asn-Pro-DTyr-DTrp-DTrpAMC] ([pGlu]NP[dY][dW][dW]-{AMC})
[2]
  Ki: 30 nM
[1]; [9]
  Ki: 60 nM

## Cc1cc(=O)oc2cc(NC(=O)[C@H](Cc3c[nH]c4ccccc34)NC(=O)[C@H](Cc3ccc(O)cc3)NC(=O)[C@@H]3CCCN3C(=O)[C@H](CC(N)=O)NC(=O)[C@@H]3CCC(=O)N3)ccc12 [JAK 2, Glp-Asn-Pro-LTyr-LTrp-AMC] ([pGlu]NPYW-{AMC})
[1]; [8]
  Ki: ~40000 nM
[1]
  Affinity for [3H]-3MeHis-TRH-labelled receptors in rat brain cortex: low affinity

## Cc1cc(=O)oc2cc(NC(=O)[C@@H](Cc3c[nH]c4ccccc34)NC(=O)[C@@H](Cc3ccc(O)cc3)NC(=O)[C@@H]3CCCN3C(=O)[C@H](CC(N)=O)NC(=O)[C@@H]3CCC(=O)N3)ccc12 [JAK 2D, Glp-Asn-Pro-DTyr-DTrpAMC] ([pGlu]NP[dY][dW]-{AMC})
[2]
  Ki: 100 nM
[1]; [9]
  Ki: 3.7 nM
[1]
  Affinity for [3H]-3MeHis-TRH-labelled receptors compared with 3MeHis-TRH: greater affinity

## NC(=O)C[C@H](NC(=O)[C@@H]1CCC(=O)N1)C(=O)N1CCC[C@H]1C(=O)N[C@@H](Cc1ccc(O)cc1)C(=O)N[C@@H](Cc1c[nH]c2ccccc12)C(=O)N[C@@H](Cc1c[nH]c2ccccc12)C(N)=O [JAK 3, Glp-Asn-Pro-LTyr-LTrp-LTrpNH2] ([pGlu]NPYWW-NH2)
[2]
  Ki: 730 nM

## NC(=O)C[C@H](NC(=O)[C@@H]1CCC(=O)N1)C(=O)N1CCC[C@H]1C(=O)N[C@@H](Cc1ccc(O)cc1)C(=O)N[C@@H](Cc1c[nH]c2ccccc12)C(N)=O [JAK 4, Glp-Asn-Pro-LTyr-LTrp-NH2] ([pGlu]NPYW-NH2)
[1]; [8]
  Ki: 120 nM

## NC(=O)C[C@H](NC(=O)[C@@H]1CCC(=O)N1)C(=O)N1CCC[C@H]1C(=O)N[C@H](Cc1ccc(O)cc1)C(=O)N[C@H](Cc1c[nH]c2ccccc12)C(N)=O [JAK 4D, Glp-Asn-Pro-D-Tyr-D-TrpNH2] ([pGlu]NP[dY][dW]-NH2)
[2]
  Ki: 110 nM
[1]; [9]
  Ki: 5.5 nM
[1]
  Affinity for [3H]-3MeHis-TRH-labelled receptors compared with 3MeHis-TRH: greater affinity
[3]
  Sleep time: 54.1 ± 2.4 min
[4]; 0.1 mg/kg
  Responses on co-administration with 10 mg/kg TRH: equivalent to those achieved by 20 and 50 mg/kg TRH
[4]; 0.1 mg/kg, 15-20 min after TRH
  Effect of pre-treatment on stimulatory effect of 10 mg/kg TRH: enhanced
[4]; 1 mg/kg JAK4-D
  Activity response compared with TRH: comparable to that produced by TRH 5 mg/kg
[4]; 1 mg/kg, entire observation period
  Effect of pre-treatment on responses to 10 mg/kg TRH: enhanced and prolonged
[4]; 0.1-5 mg/kg i.p.
  Effect on spontaneous rat activity scores vs vehicle: transient increase
[5]; 1 mg/kg
  Effect of pre-treatment on peak WDS response to 10 mg/kg TRH: enhanced
  Occurrence of WDS: comparable with the response produced by 5 mg/kg TRH

## Cc1cc(=O)oc2cc(NC(=O)[C@@H]3CCCN3C(=O)[C@H](CC(N)=O)NC(=O)[C@@H]3CCC(=O)N3)ccc12 [JAK 5, Glp-Asn-Pro-AMC] ([pGlu]-Asn-Pro-{AMC})
[2]
  Ki: 970 nM
[6]
  Affinity compared to TRH for [3H]-3MeHis-TRH-labelled receptors in rat cortical membranes: relatively low affinity
[7]
  Effect on central effects of TRH in vivo: amplify

## NC(=O)C[C@H](NC(=O)[C@@H]1CCC(=O)N1)C(=O)N1CCC[C@H]1C(N)=O [JAK 6, Glp-Asn-ProNH2] ([pGlu]-Asn-Pro-NH2)
[2]
  Ki: 16100 nM
[6]
  Affinity compared to TRH for [3H]-3MeHis-TRH-labelled receptors in rat cortical membranes: relatively low affinity

## NC(=O)[C@@H](Cc1c[nH]c2ccccc12)NC(=O)[C@@H](Cc1ccc(O)cc1)NC(=O)[C@@H]1CCCN1C(=O)[C@H](Cc1c[nH]cn1)NC(=O)[C@@H]1CCC(=O)N1 [JAK 7D, Glp-His-Pro-D-Tyr-D-TrpNH2] ([pGlu]HP[dY][dW]-NH2)
[2]
  Ki: 19600 nM
[1]; [9]
  Ki: 1000 nM

## NC(=O)[C@@H]1CCCN1C(=O)[C@H](Cc1c[nH]cn1)NC(=O)[C@@H]1CCC(=O)N1 [TRH, pyroglutamyl-histidyl-prolineamide, reference compound]
[1]; [8]
  Ki: 22 nM
[3]
  Sleep time: 54.5 ± 4.3 min
  Effect on barbiturate-induced sleep time: significantly (p<0.05, Student's t-test) reduce
[4]; TRH 5-50 mg/kg
  Effect on rat activity: dose-dependent increase
[5]; TRH i.p.
  Effect on WDS: concentration-dependent increase
  Persistence of effects on WDS: approximately 20 min
  Time of maximum numbers of WDS post administration: 5 min

## [^3H][3-Me-His^2]TRH [reference compound]
[6]; single population of high affinity sites (Sharif 1989, Kelly et al., 2002), read-out: Kd on rat brain cortical membranes
  Kd: ~5 nM

## [pGlu]NP[dY][dW]-NH2
[3]
  Effect on barbiturate-induced sleep time: significantly (p<0.05, Student's t-test) reduce
